Data as given in patent publication US12453757B2, “Method for ameliorating autism symptoms by pharmacological activation of the neurotensin receptor 1 (NTSR1)” (New York Institute of Technology, priority 2022, dated 2025).
Structures can show the parent of a compound that is named as a salt. Numbered stars: 1 amine (or outer) side, 2 acyl side, 3 side chain; on linkers, the order of the positions; unused ones are H or OH. Square brackets hold non-standard residues; d marks the D form. Peptide text beside a SMILES is read from it. X1 = NCCCC[C@H](N)CN([C@@H](CCCCN)C(=O)[*:2])[*:1]; Tle = CC(C)(C)[C@H](N)C(=O)O

Key:
[1] = test system: SHANK3 haploinsufficiency mouse model of autism; assay: Odor detection in novel background odors (go/no-go behavioral task), SHANK3 haploinsufficiency mice; assay type: in vivo; settings: 6 mice, 0.13 mg/kg subcutaneous in saline, 30 minutes before test, chance 0.5, optimal 1
Procedure: (§1) FIG. 1: Behavioral task used to test the effect of PD149163. Water-deprived, head-fixed mice were trained to identify target odors in the presence of background odors. […] If the target was the “go target” odors and the mouse licked, the mouse was rewarded with a small amount water. If the mouse wrongly licked the “no-go target” odors, no water was delivered and it was given a time out. After 10-13 days, mice performance exceeded 80%. The mice were then tested with the test set, that consisted of the same target odors but with novel background odors.
(§2) In order to test the effect of NTSR1 agonists, a novel behavioral task was used developed in the lab. In this task (see FIG. 1), water-deprived, head-fixed mice were trained to identify target odors in the presence of background odors. If the mouse responded to the go target odors, it was rewarded with water. If the mouse wrongly responded to the no-go target odors, no water was delivered and it experienced a time out. Chance performance was 0.5 and optimal performance was 1. After mice mastered this task (performance>0.8) with a set of known background odors after ˜10 days of training, the animals were tested with the same targets but in the presence of novel background odors. The performance of WT mice with novel background odors is above chance (0.74, 95% CI: 0.68-0.80, 3 WT mice). […]

[2] = test system: CNTNAP2 knockout mouse model of autism; assay: Odor detection in novel background odors (go/no-go behavioral task), CNTNAP2 knockout mice; assay type: in vivo
Procedure: as §1
In order to test the effect of NTSR1 agonists, a novel behavioral task was used developed in the lab. In this task (see FIG. 1), water-deprived, head-fixed mice were trained to identify target odors in the presence of background odors. If the mouse responded to the go target odors, it was rewarded with water. If the mouse wrongly responded to the no-go target odors, no water was delivered and it experienced a time out. Chance performance was 0.5 and optimal performance was 1. After mice mastered this task (performance>0.8) with a set of known background odors after ˜10 days of training, the animals were tested with the same targets but in the presence of novel background odors. The performance of WT mice with novel background odors is above chance (0.74, 95% CI: 0.68-0.80, 3 WT mice).
This novel behavioral task was used to test the effects of the neurotensin receptor 1 agonists. The performances of both mouse models of autism without PD149163 (a peptide neurotensin receptor 1 agonist) were lower than the performance of the WT mice (SHANK3 haploinsufficiency: 0.62, 95% CI: 0.59-0.66, 6 mice, each mouse tested on 4 different days, CNTNAP2 knockout: 0.61, 95% CI: 0.56-0.65, 4 mice) (see FIG. 2). […] This dosage reversed the recognition deficit in novel environments shown by both mouse models of autism, with performance that matched the performance of the WT mice (SHANK3 haploinsufficiency: 0.81, 95% CI: 0.77-0.85, 6 mice, each mouse tested on 2 different days, CNTNAP2 knockout: 0.82, 95% CI: 0.77-0.86, 4 mice). […]

[3] = test system: SHANK3 and CNTNAP2 mouse models of autism; assay: Odor detection in novel background odors, both mouse models of autism pooled (dose response, duration); assay type: in vivo
Procedure: FIG. 3: Performance of odor detection in novel environments as a function of the dose of PD149163 injected subcutaneously using saline as vehicle. The bars represent the average performance for all 10 tested mice (four CNTNAP2 mice and six SHANK3 mice) at the three doses tested. The error bars are the 95% CI. The lines represent the performance for individual mice. The p values were calculated using paired t-test to compare the average performances of the 10 tested mice using the 0.13 mg/kg against the 0.065 mg/kg dose and the no drug condition.
as §2

mice = assay: Lethargy side effect after injection; assay type: in vivo, mouse

In the case of CCOC(=O)[C@H](CC(C)C)NC(=O)[C@@H](NC(=O)[C@H](Cc1c[nH]c2ccccc12)NC(=O)[C@@H]1CCCN1C(=O)[C@H](CCCCN)NC[C@@H](N)CCCCN)C(C)(C)C [PD149163, N2-[(2S)-2,6-Diaminohexyl]-L-lysyl-L-prolyl-L-tryptophyl-3-methyl-L-valyl-L-Leucine ethyl ester tetrahydrochloride hydrate] (H-[X1]PW[Tle]L-OEt), the “Performance of odor detection with novel background odors” value (from here on “Performance of odor detection”) [1] is reported as 0.81, the “Performance of odor detection” value ([2]; CNTNAP2 knockout male mice (2 mice, 2 sessions), 0.39 mg/kg in PEG400 (80 μg/ml), two subcutaneous injections 1 hour and 30 minutes before task) is reported as 0.76 and the “Performance of odor detection” value ([2]; CNTNAP2 knockout male mice (2 mice, 5 sessions), 0.13 mg/kg subcutaneous in saline, 30 minutes before test) is reported as 0.54. The “Performance of odor detection” value ([2]; CNTNAP2 knockout, 4 mice, 0.13 mg/kg subcutaneous in saline, 30 minutes before test, chance 0.5, optimal 1) was 0.82, the “Duration of drug effects on performance” value ([3]; 0.13 mg/kg subcutaneous in saline, returned to baseline the next day) was “less than 24 hours” and the “Improvement of behavior (odor detection performance)” value ([3]; half dose 0.065 mg/kg subcutaneous, saline as vehicle) was “did not produce an improvement”. The Lethargy (mice; 0.26 mg/Kg subcutaneous, PEG400 as vehicle, 2 SHANK3 mice) was “no lethargy”, the Lethargy (mice; 0.26 mg/kg subcutaneous, saline as vehicle) was “produced lethargy” and the Lethargy (mice; therapeutic dose by intraperitoneal injection instead of subcutaneous) was “resulted also in lethargy”.
